Measured values taken from the NIST ThermoML archive (doi:10.1021/je025657+).
“And” between values parts separate entries of the source, which are not always exact repeats. Equal entries are not always repeated.

COC(F)(F)C(F)(F)F [methyl pentafluoroethyl ether]
Conditions	mass density [kg/m3]
330 K, 2009.1 kPa, Liquid	1174.81
330 K, 2033.5 kPa, Liquid	1173.24
330 K, 2499.3 kPa, Liquid	1178.46
330 K, 3014.1 kPa, Liquid	1182.15
330 K, 3040.4 kPa, Liquid	1180.5
330 K, 3527.6 kPa, Liquid	1185.73
330 K, 4007.5 kPa, Liquid	1188.95
330 K, 4054 kPa, Liquid	1187.37
330 K, 4522.8 kPa, Liquid	1192.32
330 K, 5044.3 kPa, Liquid	1195.65
330 K, 5095.2 kPa, Liquid	1194.02
330 K, 5526.8 kPa, Liquid	1198.64
330 K, 6004.2 kPa, Liquid	1201.54
330 K, 6121.5 kPa, Liquid	1200.18
330 K, 6544.9 kPa, Liquid	1204.73
330 K, 7006.4 kPa, Liquid	1207.37
330 K, 7184 kPa, Liquid	1206.23
340 K, 72.2 kPa, Gas	3.93
340 K, 97.1 kPa, Gas	5.22
340 K, 106 kPa, Gas	5.76
340 K, 154.8 kPa, Gas	8.59
340 K, 198.1 kPa, Gas	11.09
340 K, 224.8 kPa, Gas	12.57
340 K, 295.9 kPa, Gas	17.05
340 K, 323.2 kPa, Gas	18.7
340 K, 396.6 kPa, Gas	23.61
340 K, 495.8 kPa, Gas	30.46
340 K, 596 kPa, Gas	38.08
340 K, 597.2 kPa, Gas	38.04
340 K, 707 kPa, Liquid	1124.67
340 K, 722.8 kPa, Liquid	1124.82
340 K, 1026.7 kPa, Liquid	1129.54
340 K, 1053.7 kPa, Liquid	1128.14
340 K, 1524.7 kPa, Liquid	1134.41
340 K, 1999.2 kPa, Liquid	1137.11
340 K, 2020.3 kPa, Liquid	1139.04
340 K, 2516 kPa, Liquid	1143.49
340 K, 3002.4 kPa, Liquid	1147.7
340 K, 3017 kPa, Liquid	1145.96
340 K, 3529.7 kPa, Liquid	1152.07
340 K, 3993.9 kPa, Liquid	1155.78
340 K, 4072.4 kPa, Liquid	1154.47
340 K, 4525.8 kPa, Liquid	1159.9
340 K, 5046.6 kPa, Liquid	1163.8
340 K, 5093 kPa, Liquid	1162.13
340 K, 5487.3 kPa, Liquid	1166.99
340 K, 6030.7 kPa, Liquid	1170.83
340 K, 6115.2 kPa, Liquid	1169.4
340 K, 6527.2 kPa, Liquid	1174.25
340 K, 7001.9 kPa, Liquid	1177.33
340 K, 7160.8 kPa, Liquid	1176.36
350 K, 71.4 kPa, Gas	3.8
350 K, 104.7 kPa, Gas	5.6
350 K, 129.8 kPa, Gas	6.86
350 K, 152.8 kPa, Gas	8.19
350 K, 222 kPa, Gas	12.14
350 K, 275 kPa, Gas	15.14
350 K, 319.9 kPa, Gas	17.93
350 K, 395 kPa, Gas	22.4
350 K, 455.2 kPa, Gas	26.4
350 K, 560.7 kPa, Gas	33.51
350 K, 777.4 kPa, Gas	50.08
350 K, 799.2 kPa, Gas	52.12
350 K, 902.4 kPa, Liquid	1084.92
350 K, 933 kPa, Liquid	1085.29
350 K, 1008.2 kPa, Liquid	1087.64
350 K, 1049.9 kPa, Liquid	1086.78
350 K, 1470.3 kPa, Liquid	1093.45
350 K, 2013.5 kPa, Liquid	1099.88
350 K, 2056.5 kPa, Liquid	1098.92
350 K, 2517.3 kPa, Liquid	1105.5
350 K, 3024.3 kPa, Liquid	1110.87
350 K, 3061.7 kPa, Liquid	1109.59
350 K, 3474.5 kPa, Liquid	1115.43
350 K, 4005.1 kPa, Liquid	1120.6
350 K, 4100.2 kPa, Liquid	1119.85
350 K, 4481.5 kPa, Liquid	1124.97
350 K, 4979.5 kPa, Liquid	1129.41
350 K, 5116.8 kPa, Liquid	1128.93
350 K, 5469.1 kPa, Liquid	1133.62
350 K, 5973.9 kPa, Liquid	1137.8
350 K, 6125.5 kPa, Liquid	1137.3
350 K, 6531.4 kPa, Liquid	1142.27
350 K, 6996.6 kPa, Liquid	1145.86
350 K, 7196.9 kPa, Liquid	1145.6
360 K, 45.3 kPa, Gas	2.31
360 K, 98.2 kPa, Gas	5.11
360 K, 137.2 kPa, Gas	7.1
360 K, 200.1 kPa, Gas	10.49
360 K, 231.4 kPa, Gas	12.2
360 K, 289.8 kPa, Gas	15.49
360 K, 334.5 kPa, Gas	18.07
360 K, 415.3 kPa, Gas	22.84
360 K, 477.9 kPa, Gas	26.77
360 K, 586.1 kPa, Gas	33.71
360 K, 670.7 kPa, Gas	39.54
360 K, 807.9 kPa, Gas	49.64
360 K, 915.4 kPa, Gas	58.53
360 K, 990.4 kPa, Gas	65.14
360 K, 1139.7 kPa, Liquid	1041.29
360 K, 1228 kPa, Liquid	1042.77
360 K, 1529.8 kPa, Liquid	1049.05
360 K, 2003.3 kPa, Liquid	1056.42
360 K, 2053.3 kPa, Liquid	1055.56
360 K, 2463 kPa, Liquid	1063.09
360 K, 2984.8 kPa, Liquid	1070.14
360 K, 3048.1 kPa, Liquid	1069.38
360 K, 3506.1 kPa, Liquid	1076.76
360 K, 4021.5 kPa, Liquid	1082.91
360 K, 4078.7 kPa, Liquid	1081.81
360 K, 4467.5 kPa, Liquid	1087.96
360 K, 5021.2 kPa, Liquid	1093.94
360 K, 5093.9 kPa, Liquid	1092.92
360 K, 5527.2 kPa, Liquid	1099.14
360 K, 5980.2 kPa, Liquid	1103.61
360 K, 6147.8 kPa, Liquid	1103.45
360 K, 6519.9 kPa, Liquid	1108.71
360 K, 6997.3 kPa, Liquid	1113.07
360 K, 7245.1 kPa, Liquid	1113.38
370 K, 71.6 kPa, Gas	3.44
370 K, 105.5 kPa, Gas	5.15
370 K, 120.9 kPa, Gas	6.04
370 K, 154.8 kPa, Gas	7.64
370 K, 176.6 kPa, Gas	8.92
370 K, 226.2 kPa, Gas	11.41
370 K, 256.7 kPa, Gas	13.19
370 K, 328.5 kPa, Gas	16.95
370 K, 370 kPa, Gas	19.53
370 K, 471.8 kPa, Gas	25.21
370 K, 527.2 kPa, Gas	28.67
370 K, 666.8 kPa, Gas	37.39
370 K, 737.9 kPa, Gas	42.35
370 K, 920.6 kPa, Gas	55.26
370 K, 1005.3 kPa, Gas	62.34
370 K, 1205.2 kPa, Gas	80.41
370 K, 1224.5 kPa, Gas	81.87
370 K, 1277.5 kPa, Gas	87.49
370 K, 1278.1 kPa, Gas	88.01
370 K, 1404.3 kPa, Liquid	992.2
370 K, 1431.7 kPa, Liquid	992.85
370 K, 1520 kPa, Liquid	995.4
370 K, 1998.7 kPa, Liquid	1006.05
370 K, 2031.8 kPa, Liquid	1006.03
370 K, 2519.7 kPa, Liquid	1016.39
370 K, 3015.7 kPa, Liquid	1025.26
370 K, 3042 kPa, Liquid	1024.99
370 K, 3496.9 kPa, Liquid	1033.2
370 K, 4012.1 kPa, Liquid	1041.13
370 K, 4077.7 kPa, Liquid	1041.14
370 K, 4515.8 kPa, Liquid	1048.28
370 K, 5031.9 kPa, Liquid	1055.14
370 K, 5127.4 kPa, Liquid	1055.31
370 K, 5527.5 kPa, Liquid	1061.36
370 K, 5982.5 kPa, Liquid	1066.79
370 K, 6112.9 kPa, Liquid	1067.19
370 K, 6526.3 kPa, Liquid	1072.95
370 K, 6886.1 kPa, Liquid	1076.82
370 K, 7213.4 kPa, Liquid	1079.13
380 K, 74.8 kPa, Gas	3.57
380 K, 110.1 kPa, Gas	5.3
380 K, 161.5 kPa, Gas	7.87
380 K, 235.9 kPa, Gas	11.67
380 K, 268.9 kPa, Gas	13.32
380 K, 342.4 kPa, Gas	17.25
380 K, 408.5 kPa, Gas	20.83
380 K, 492.2 kPa, Gas	25.55
380 K, 502.4 kPa, Gas	26.12
380 K, 602.7 kPa, Gas	31.98
380 K, 697.5 kPa, Gas	37.81
380 K, 703.9 kPa, Gas	38.16
380 K, 804.6 kPa, Gas	44.65
380 K, 899.8 kPa, Gas	51.1
380 K, 969.2 kPa, Gas	56.06
380 K, 1019.1 kPa, Gas	59.71
380 K, 1101.8 kPa, Gas	66.08
380 K, 1212.9 kPa, Gas	75.17
380 K, 1295.3 kPa, Gas	82.53
380 K, 1299.2 kPa, Gas	82.86
380 K, 1417.2 kPa, Gas	94.38
380 K, 1486.5 kPa, Gas	101.79
380 K, 1486.8 kPa, Gas	101.8
380 K, 1499.7 kPa, Gas	103.34
380 K, 1530.9 kPa, Gas	107.11
380 K, 1744.3 kPa, Liquid	935.88
380 K, 1763.3 kPa, Liquid	936.59
380 K, 1785 kPa, Liquid	937.35
380 K, 1807.8 kPa, Liquid	938.21
380 K, 2057.3 kPa, Liquid	946.7
380 K, 2481.3 kPa, Liquid	959.56
380 K, 2986.2 kPa, Liquid	972.71
380 K, 3036.6 kPa, Liquid	973.66
380 K, 3496.2 kPa, Liquid	984.34
380 K, 4004.9 kPa, Liquid	994.7
380 K, 4035.7 kPa, Liquid	994.89
380 K, 4514.5 kPa, Liquid	1004.14
380 K, 4998.2 kPa, Liquid	1012.37
380 K, 5093.2 kPa, Liquid	1013.21
380 K, 5510.3 kPa, Liquid	1020.45
380 K, 6032.6 kPa, Liquid	1028.11
380 K, 6103.7 kPa, Liquid	1028.48
380 K, 6514.1 kPa, Liquid	1034.76
380 K, 7011.9 kPa, Liquid	1041.19
380 K, 7127.1 kPa, Liquid	1041.96

mass density
Conditions	330 K	340 K	350 K	360 K	370 K	380 K
Gas	–	47.9 kg/m3	61.38 kg/m3	77.81 kg/m3	101.33 kg/m3	133.96 kg/m3
Liquid	1161.46 kg/m3 and 1163.08 kg/m3	1124.55 kg/m3 and 1126.1 kg/m3 and 1126.12 kg/m3	1084.74 kg/m3 and 1086.06 kg/m3	1040.97 kg/m3 and 1042.15 kg/m3 and 1042.21 kg/m3	991.98 kg/m3 and 992.32 kg/m3 and 992.42 kg/m3	934.86 kg/m3 and 935.87 kg/m3
